Earlier results as cited in patent publication US20210113536A1, “METHODS AND COMPOSITIONS FOR DETECTING AND TREATING VENOUS THROMBOEMBOLISM” (United States Government As Represented By The Department …, priority 2019, published 2021).

System: asymptomatic participants
Settings: 20 mg of rosuvastatin, JUPITER trial

## CC(C)c1nc(N(C)S(C)(=O)=O)nc(-c2ccc(F)cc2)c1/C=C/[C@@H](O)C[C@@H](O)CC(=O)O [rosuvastatin]
  occurrence of symptomatic VTE: reduced occurrence of symptomatic VTE
